Read-outs that look alike come from different tables or passages of the source.
Columns and labels:
[1] = tested on: HIV-1 infection of TZM-bl cells; assay: HIV-1 infectivity enhancement assay, β-galactosidase luminescence; type: cell-based; settings: for Rel-EFC / Log10 Infection Rel EFC: 1.3 µM peptide; for Rel-EFC: infection relative to EF-C (QCKIKQIINMWQ = 1); for Log10 Infection Rel EFC: log10 of infection relative to EF-C; for Log Infectivity: Log10 infection relative to EF-C, asymmetric std dev errors; for Log10 Infection Rel EF-C: HIV-1 infection of TZM-bl cells; for Log10 of Rel to EFC (Feb2021): Log10 of infection relative to EF-C; for Abs. Inf.: β-galactosidase luminescence; for Abs. Infection at 0.26 µM / Infect 1 0.26 µM / Infect 2 0.26 µM / Infect 3 0.26 µM: peptide 0.26 µM; for Abs. Infection at 0.26 µM / Abs. Infection at 1.3 µM: mean of n = 3, Figure 4A; for Infect 1 0.26 µM / Infect 1 .3 µM: replicate 1, absolute infection signal; for Infect 1 0.26 µM / Infect 2 0.26 µM / Infect 3 0.26 µM / Infect 1 .3 µM / Infect 2 1.3µM / Infect 3 1.3 µM: Figure 4A; for Infect 2 0.26 µM / Infect 2 1.3µM: replicate 2, absolute infection signal; for Infect 3 0.26 µM / Infect 3 1.3 µM: replicate 3, absolute infection signal; for Abs. Infection at 1.3 µM / Infect 1 .3 µM / Infect 2 1.3µM / Infect 3 1.3 µM: peptide 1.3 µM
[2] = type: physicochemical; settings: for ThT Cat. / ThT-Fluorescence (categorical): ThT-active if fluorescence at least twice the control
Method in brief: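 Fibrils (1 mg/mL solution) were mixed with 50 µM ThT in PBS for 15 min at RT, and fluorescence was read at λex 440/λem 488 nm against a PBS blank, as a triplicate mean ± SD. Zeta potential came from electrophoretic mobility (Smoluchowski) after 1 d aggregation at 1 mg/mL in PBS pH 7.4, diluted into 1 mM KCl.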

[3] = β-sheet content by ATR-FT-IR; type: physicochemical; settings: for b -sheet / %: Fig. S7 panel A, β-sheet content by ATR-FT-IR; for beta sheet: peptides with TEM 2cat 0
Method in brief: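 In the conversion assay, unconverted peptide passing a 3 kDa membrane at 4 °C was labelled with fluorescamine alongside unfiltered PNF, both in DMSO, and read at 365/470 nm after 20 min at room temperature. β-sheet content relied on ATR FT-IR of lyophilized fibril powder.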

[4] = Fig. S7 panel A (plotted against β-sheet content), TZM-bl cells
[5] = Fig. S7 panel B (plotted against CR), rounded to two decimals, TZM-bl cells
[6] = Log10 of infection rate relative to EF-C, Figure 3A source data
[7] = infection rate relative to EF-C, log10, data of Figure 2D
[8] = infection rate relative to EF-C, log10, source data of Figure 2C
[9] = ThT fluorescence category, 1 if Rel. ThT >2
[10] = second listing, peptides with TEM 2cat 0
[11] = absolute HIV-1 infection signal, TZM-bl cells

Substance | Rel-EFC [1] | Log10 Infection Rel EFC [1] | Log Infectivity [1, 4] | Log Infectivity [1, 5] | Log10 Infection Rel EF-C [1, 6] | Log10 Infection Rel EF-C [1, 7] | Log10 Infection Rel EF-C [1, 8] | Log10 of Rel to EFC (Feb2021) ([1]; all peptides of FigS16) | Tht category (> 2 to blank = +) ([2]; Fig S10 panel D) | ThT Cat. ([2]; Fig S10 panel E) | ThT Cat, ([2]; ThT category, 1 if Rel. ThT >2) | ThT Cat. ([2]; ThT category, 1 if Rel. ThT >2) | ThT Cat. / ThT-Fluorescence (categorical) [2] | b -sheet / % [3] [%] | Tht category (> 2 to blank = +) ([2]; FigS12 panel A) | ThT Cat, ([2]; FigS12 panel B) | ThT Cat. [2, 9] | other results
QCKFKQFFNM | 0,43 | -0,37 | -0.3706 | -0.37 | -0.37 | -0.3706 | -0.3706 | -0.37 | 1 (ThT. Cat is 1, if Rel. ThT >2) | 1 (ThT. Cat is 1, if Rel. ThT >2) | 1 (ThT. Cat is 1, if Rel. ThT >2) | 1 (ThT. Cat is 1, if Rel. ThT >2) | 1 (ThT. Cat is 1, if Rel. ThT >2) | 41.8396 | – | – | – | Abs. Inf. ([1]; absolute infection signal, HIV-1 on TZM-bl cells): 5847; Log10 Inf. rel. to EF-C ([1]; log10 of HIV-1 infection of TZM-bl cells relative to EF-C (EF-C = 0)): -0.3706
KAKAKAQA | 0,01 | -2,06 | -2.06 | – | -2.06 | -2.06 | -2.06 | – | 0 (ThT-inactive (N-Fold <2)) | – | 0 (ThT-inactive (N-Fold <2)) | – | 0 (ThT-inactive (N-Fold <2)) | 39.62 | 0 (ThT-inactive (N-Fold <2)) | 0 (ThT-inactive (N-Fold <2)) | 0 (ThT-inactive (N-Fold <2)) | –
CSISIQI | 0,06 | -1,25 | -1.252 | -1.25 | -1.25 | -1.252 | -1.252 | – | 1 (ThT. Cat is 1, if Rel. ThT >2) | 1 (ThT. Cat is 1, if Rel. ThT >2) | 1 (ThT. Cat is 1, if Rel. ThT >2) | – | 1 (ThT. Cat is 1, if Rel. ThT >2) | 58.57 | 1 (ThT. Cat is 1, if Rel. ThT >2) | 1 (ThT. Cat is 1, if Rel. ThT >2) | 1 (ThT. Cat is 1, if Rel. ThT >2) | Abs. Infection at 0.26 µM [1]: 1390; Infect 1 0.26 µM [1]: 1340; Infect 2 0.26 µM [1]: 1160; Infect 3 0.26 µM [1]: 1670; Abs. Infection at 1.3 µM [1]: 3087; Infect 1 .3 µM [1]: 3310; Infect 2 1.3µM [1]: 2600; Infect 3 1.3 µM [1]: 3350
HHHHKIKIKIKIYYYY | 0,68 | -0,17 | -0.1685 | – | -0.17 | -0.1685 | -0.1685 | -0.17 | 1 (ThT. Cat is 1, if Rel. ThT >2) | – | 1 (ThT. Cat is 1, if Rel. ThT >2) | – | 1 (ThT. Cat is 1, if Rel. ThT >2) | 53.27 | – | – | 1 (ThT. Cat is 1, if Rel. ThT >2) | Log10 of Rel to EFC (Feb2021) [1, 10]: -0.17; Abs. Infection at 0.26 µM [1]: 8963; Infect 1 0.26 µM [1]: 7733.33; Infect 2 0.26 µM [1]: 6433.33; Infect 3 0.26 µM [1]: 12723.33; Abs. Infection at 1.3 µM [1]: 20713.33333; Infect 1 .3 µM [1]: 24723.33; Infect 2 1.3µM [1]: 15203.33; Infect 3 1.3 µM [1]: 22213.33; beta sheet [3]: 53
ILKNLSRSRKIKIQIC | 0,34 | -0,47 | -0.4741 | – | -0.47 | -0.4741 | -0.4741 | -0.47 | 1 (ThT. Cat is 1, if Rel. ThT >2) | – | 1 (ThT. Cat is 1, if Rel. ThT >2) | – | 1 (ThT. Cat is 1, if Rel. ThT >2) | 37.6 | – | – | 1 (ThT. Cat is 1, if Rel. ThT >2) | –
RGDSKIKIQIC | 0,6 | -0,22 | -0.2249 | -0.22 | -0.22 | -0.2249 | -0.2249 | -0.22 | 1 (ThT. Cat is 1, if Rel. ThT >2) | 1 (ThT. Cat is 1, if Rel. ThT >2) | 1 (ThT. Cat is 1, if Rel. ThT >2) | – | 1 (ThT. Cat is 1, if Rel. ThT >2) | 38.56 | – | – | 1 (ThT. Cat is 1, if Rel. ThT >2) | –
HHHHKIKIKIKIWWWW | 0,38 | -0,42 | -0.4216 | -0.42 | -0.42 | -0.4216 | -0.4216 | -0.42 | 1 (ThT. Cat is 1, if Rel. ThT >2) | 1 (ThT. Cat is 1, if Rel. ThT >2) | 1 (ThT. Cat is 1, if Rel. ThT >2) | – | 1 (ThT. Cat is 1, if Rel. ThT >2) | 48.8 | – | – | 1 (ThT. Cat is 1, if Rel. ThT >2) | Log10 of Rel to EFC (Feb2021) [1, 10]: -0.42; beta sheet [3]: 49
KIKIQIMWNQ | 0,56 | -0,25 | -0.2495 | – | -0.25 | -0.2495 | -0.2495 | -0.25 | 0 (ThT-inactive (N-Fold <2)) | – | 0 (ThT-inactive (N-Fold <2)) | 0 (ThT-inactive (N-Fold <2)) | 0 (ThT-inactive (N-Fold <2)) | 41.4 | – | – | – | Abs. Inf. [1, 11]: 9147
CKIKIQINMW | 1,29 | 0,11 | 0.1122 | – | 0.11 | 0.1122 | 0.1122 | 0.11 | 0 (ThT-inactive (N-Fold <2)) | – | 0 (ThT-inactive (N-Fold <2)) | 0 (ThT-inactive (N-Fold <2)) | 0 (ThT-inactive (N-Fold <2)) | 42.9134 | – | – | – | Abs. Inf. [1, 11]: 7253
KIKIKIQI | 0,1 | -1,01 | -1.014 | -1.01 | -1.01 | -1.014 | -1.014 | – | 1 (ThT. Cat is 1, if Rel. ThT >2) | 1 (ThT. Cat is 1, if Rel. ThT >2) | 1 (ThT. Cat is 1, if Rel. ThT >2) | – | 1 (ThT. Cat is 1, if Rel. ThT >2) | 40.16 | 1 (ThT. Cat is 1, if Rel. ThT >2) | 1 (ThT. Cat is 1, if Rel. ThT >2) | 1 (ThT. Cat is 1, if Rel. ThT >2) | –

From publication PMC10447463, “Data-mining unveils structure–property–activity correlation of viral infectivity enhancing self-assembling peptides” (Nature Communications, 2023)
